The source of these data is ChEMBL document CHEMBL6134835, “Rezatapopt (PC14586): A First-in-Class Small Molecule p53 Y220C Mutant Protein Stabilizer in Clinical Trials” (J Med Chem, 2025).

Structures are written as SMILES.

As a reminder, the Cmax is the peak of the concentration-time curve. Usually AUC(0-t) stands for exposure summed from dosing to a finite time, without extrapolation to infinity. Low readings indicate less exposure, high ones more exposure.

Data set [1] relates to Cellular tumor antigen p53 (Homo sapiens), P04637 [Y220C]. Description: Reactivation of N-terminal 6xHis-tagged recombinant p53 Y220C mutant (94 to 292 residues) (unknown origin) protein assessed as stabilization of Protein/DNA complex measuring substrate concentration required to increase DNA binding incubated for 48 mins by TR-FRET assay. On the technique in general: In TR-FRET formats the signal depends on donor and acceptor labels being close together.

The test system of data set [2] is NUGC-3. Nature of the data set: Antitumor activity against human NUGC-3 cells xenografted in female Balb/c nude mouse assessed as tumor growth inhibition at 25 mg/kg, po relative to control. In kind it is functional. As to conditions: read-out: TGI. In general terms: A xenograft is tissue or cells of one species grown in another, often human tumour cells in immunodeficient mice.

The nature of data set [3]: Cmax in C57BL/6 mouse at 50 mg/kg, po measured for 24 hrs by LC-MS/MS analysis. In kind it is ADME, organism-based. As to conditions: in vivo.
For data set [4], the system named is NUGC-3. Description: Antitumor activity against human NUGC-3 cells xenografted in female Balb/c nude mouse assessed as tumor growth inhibition at 50 mg/kg, po relative to control. The class given is functional. As to conditions: read-out: TGI.
Data set [5] in a line: AUC (0 to last) in C57BL/6 mouse at 50 mg/kg, po measured for 24 hrs by LC-MS/MS analysis. The class given is ADME, organism-based. As to conditions: in vivo.

Regarding `CCN(CC)C1CCN(Cc2cc(C#CCNc3ccccc3)cc(I)c2O)CC1`, the EC1.5 in data set [1] was determined as 1.6 µM.

For `CCn1c(C#CCNc2ccccc2)cc2cc(CNC)ccc21`, the EC1.5 in data set [1] was 13.6 µM.

Consider `CCn1c2ccccc2c2cc(CNC)ccc21`, for which, in data set [1], the EC1.5 stood at 37.2 µM.

For the molecule `CN1CCC(Nc2cccc3c2cc(C#CCNc2ccc(C(C)(C)C#N)nc2)n3CC(F)(F)F)CC1`, in data set [1], the EC1.5 was found to be 0.054 µM.

Turning to `CNC(=O)c1ccc(NCC#Cc2cc3c(N[C@@H]4CCN(C)C[C@@H]4F)cccc3n2CC(F)(F)F)c(OC)c1` [REZATAPOPT], in the data set on NUGC-3 [2], the inhibition in vivo at 25 mg/kg stood at 33%. The highest concentration (Cmax) in data set [3] was 16600 ng/mL. Moreover, the inhibition in vivo at 50 mg/kg in the data set on NUGC-3 [4] was determined as 71%. Further, in data set [1], the EC1.5 is 0.009 µM. Further, the AUC(0-t) at 24 h in data set [5] was found to be 163 µg·h/mL.
